Reference: the NIST ThermoML archive (doi:10.1021/je0301794)
Numbers after ± are expanded uncertainties.

What was measured:
[1] = xn = mol fraction of the nth substance listed; conditions: 101.3 kPa, Liquid
[2] = excess molar enthalpy (molar enthalpy of mixing); xn = mol fraction of the nth substance listed; conditions: 318.15 K, 101.3 kPa, Liquid

COC(=O)OC [dimethyl carbonate] + CCCCCCC
[1]
Conditions | mass density [kg/m3]
293.15 K, x1 = 0.05 | 694 ± 0.5
293.15 K, x1 = 0.094 | 703.5 ± 0.5
293.15 K, x1 = 0.2039 | 729.2 ± 0.5
293.15 K, x1 = 0.324 | 761.2 ± 0.5
293.15 K, x1 = 0.4062 | 785.9 ± 0.5
293.15 K, x1 = 0.5059 | 819.4 ± 0.5
293.15 K, x1 = 0.6099 | 859.2 ± 0.5
293.15 K, x1 = 0.6987 | 897.8 ± 0.5
293.15 K, x1 = 0.8086 | 952.7 ± 0.5
293.15 K, x1 = 0.9029 | 1006.6 ± 0.5
293.15 K, x1 = 0.9504 | 1036.6 ± 0.5
293.15 K, x1 = 1 | 1070 ± 0.6
298.15 K, x1 = 0.0594 | 691.6 ± 0.5
298.15 K, x1 = 0.1204 | 704.9 ± 0.5
298.15 K, x1 = 0.2132 | 726.7 ± 0.5
298.15 K, x1 = 0.3135 | 753.1 ± 0.5
298.15 K, x1 = 0.4018 | 779 ± 0.5
298.15 K, x1 = 0.4716 | 801.6 ± 0.5
298.15 K, x1 = 0.6051 | 851 ± 0.5
298.15 K, x1 = 0.6946 | 889.3 ± 0.5
298.15 K, x1 = 0.8031 | 943 ± 0.5
298.15 K, x1 = 0.902 | 999.5 ± 0.5
298.15 K, x1 = 0.9477 | 1028.2 ± 0.5
298.15 K, x1 = 1 | 1063.5 ± 0.6
303.15 K, x1 = 0.0586 | 687.2 ± 0.5
303.15 K, x1 = 0.0873 | 693.2 ± 0.5
303.15 K, x1 = 0.1996 | 718.7 ± 0.5
303.15 K, x1 = 0.299 | 744.2 ± 0.5
303.15 K, x1 = 0.4009 | 773.6 ± 0.5
303.15 K, x1 = 0.5081 | 808.9 ± 0.5
303.15 K, x1 = 0.6069 | 846.2 ± 0.5
303.15 K, x1 = 0.6979 | 885.2 ± 0.5
303.15 K, x1 = 0.8051 | 938 ± 0.5
303.15 K, x1 = 0.9069 | 995.8 ± 0.5
303.15 K, x1 = 0.9638 | 1031.6 ± 0.5
303.15 K, x1 = 1 | 1056.5 ± 0.6
313.15 K, x1 = 0.0649 | 679.3 ± 0.5
313.15 K, x1 = 0.1157 | 690.1 ± 0.5
313.15 K, x1 = 0.3432 | 746.6 ± 0.5
313.15 K, x1 = 0.4378 | 775.1 ± 0.5
313.15 K, x1 = 0.5458 | 812 ± 0.5
313.15 K, x1 = 0.6259 | 842.9 ± 0.5
313.15 K, x1 = 0.7191 | 883.2 ± 0.5
313.15 K, x1 = 0.8128 | 929.3 ± 0.5
313.15 K, x1 = 0.8798 | 966.5 ± 0.5
313.15 K, x1 = 0.9536 | 1012 ± 0.5
313.15 K, x1 = 0.9822 | 1031.1 ± 0.5
313.15 K, x1 = 1 | 1043.4 ± 0.5
318.15 K, x1 = 0.0693 | 675.1 ± 0.5
318.15 K, x1 = 0.1044 | 682.5 ± 0.5
318.15 K, x1 = 0.1947 | 702.6 ± 0.5
318.15 K, x1 = 0.2734 | 722 ± 0.5
318.15 K, x1 = 0.3512 | 743.2 ± 0.5
318.15 K, x1 = 0.419 | 763.3 ± 0.5
318.15 K, x1 = 0.4889 | 785.9 ± 0.5
318.15 K, x1 = 0.5518 | 808.1 ± 0.5
318.15 K, x1 = 0.61 | 830.3 ± 0.5
318.15 K, x1 = 0.6632 | 852 ± 0.5
318.15 K, x1 = 0.7142 | 874.6 ± 0.5
318.15 K, x1 = 0.762 | 897.1 ± 0.5
318.15 K, x1 = 0.8077 | 920.1 ± 0.5
318.15 K, x1 = 0.8514 | 943.8 ± 0.5
318.15 K, x1 = 0.8883 | 965 ± 0.5
318.15 K, x1 = 0.9289 | 989.7 ± 0.5
318.15 K, x1 = 0.964 | 1012.4 ± 0.5
318.15 K, x1 = 1 | 1036.9 ± 0.5

[2]
Conditions | excess molar enthalpy [kcal/mol]
x1 = 0.095 | 0.191 ± 0.0043
x1 = 0.1875 | 0.317 ± 0.00693
x1 = 0.2819 | 0.413 ± 0.00884
x1 = 0.3677 | 0.474 ± 0.01
x1 = 0.4442 | 0.503 ± 0.0105
x1 = 0.5016 | 0.512 ± 0.0108
x1 = 0.5205 | 0.512 ± 0.0108
x1 = 0.5497 | 0.511 ± 0.0108
x1 = 0.5542 | 0.51 ± 0.0108
x1 = 0.5906 | 0.505 ± 0.0105
x1 = 0.6326 | 0.493 ± 0.0103
x1 = 0.674 | 0.474 ± 0.01
x1 = 0.7188 | 0.443 ± 0.00932
x1 = 0.7582 | 0.405 ± 0.0086
x1 = 0.8053 | 0.357 ± 0.00765
x1 = 0.8488 | 0.299 ± 0.00645
x1 = 0.892 | 0.23 ± 0.00502
x1 = 0.929 | 0.157 ± 0.00359
x1 = 0.9663 | 0.0784 ± 0.00215
x1 = 1 | 0 ± 0.000478

CCCCCCCCCC [decane] + COC(=O)OC
[1]
Conditions | mass density [kg/m3]
298.15 K, x2 = 0 | 726.2 ± 0.5
298.15 K, x2 = 0.0043 | 726.8 ± 0.5
298.15 K, x2 = 0.0235 | 729.1 ± 0.5
298.15 K, x2 = 0.0888 | 737.6 ± 0.5
298.15 K, x2 = 0.1363 | 744.6 ± 0.5
298.15 K, x2 = 0.1922 | 753.4 ± 0.5
298.15 K, x2 = 0.2402 | 761.6 ± 0.5
298.15 K, x2 = 0.3348 | 779.8 ± 0.5
298.15 K, x2 = 0.4201 | 798.8 ± 0.5
298.15 K, x2 = 0.4876 | 816 ± 0.5
298.15 K, x2 = 0.5607 | 837.1 ± 0.5
298.15 K, x2 = 0.6214 | 856.8 ± 0.5
298.15 K, x2 = 0.6754 | 876.5 ± 0.5
298.15 K, x2 = 0.7219 | 895.2 ± 0.5
298.15 K, x2 = 0.7702 | 916.6 ± 0.5
298.15 K, x2 = 0.8104 | 936.3 ± 0.5
298.15 K, x2 = 0.8421 | 953.4 ± 0.5
298.15 K, x2 = 0.8849 | 978.5 ± 0.5
298.15 K, x2 = 0.9135 | 997 ± 0.5
298.15 K, x2 = 0.9424 | 1017.3 ± 0.5
298.15 K, x2 = 0.9709 | 1039 ± 0.5
303.15 K, x2 = 0 | 722.3 ± 0.5
303.15 K, x2 = 0.0489 | 728.4 ± 0.5
303.15 K, x2 = 0.0996 | 735.2 ± 0.5
303.15 K, x2 = 0.1998 | 750.3 ± 0.5
303.15 K, x2 = 0.299 | 768.1 ± 0.5
303.15 K, x2 = 0.3991 | 789.2 ± 0.5
303.15 K, x2 = 0.4992 | 814.3 ± 0.5
303.15 K, x2 = 0.6023 | 845.3 ± 0.5
303.15 K, x2 = 0.7013 | 881.5 ± 0.5
303.15 K, x2 = 0.8008 | 925.9 ± 0.5
303.15 K, x2 = 0.9012 | 982.6 ± 0.5
303.15 K, x2 = 0.9505 | 1016.6 ± 0.5
313.15 K, x2 = 0 | 714.7 ± 0.5
313.15 K, x2 = 0.0489 | 720.6 ± 0.5
313.15 K, x2 = 0.0996 | 727.2 ± 0.5
313.15 K, x2 = 0.1998 | 742 ± 0.5
313.15 K, x2 = 0.299 | 759.4 ± 0.5
313.15 K, x2 = 0.3991 | 780.1 ± 0.5
313.15 K, x2 = 0.4992 | 804.7 ± 0.5
313.15 K, x2 = 0.6023 | 835.2 ± 0.5
313.15 K, x2 = 0.7013 | 870.6 ± 0.5
313.15 K, x2 = 0.8008 | 914.4 ± 0.5
313.15 K, x2 = 0.9012 | 970.3 ± 0.5
313.15 K, x2 = 0.9505 | 1003.6 ± 0.5
318.15 K, x2 = 0 | 710.9 ± 0.5
318.15 K, x2 = 0.0902 | 722.1 ± 0.5
318.15 K, x2 = 0.1142 | 725.4 ± 0.5
318.15 K, x2 = 0.1922 | 736.9 ± 0.5
318.15 K, x2 = 0.3283 | 760.8 ± 0.5
318.15 K, x2 = 0.4184 | 780 ± 0.5
318.15 K, x2 = 0.4855 | 796.3 ± 0.5
318.15 K, x2 = 0.4962 | 799.1 ± 0.5
318.15 K, x2 = 0.5666 | 818.8 ± 0.5
318.15 K, x2 = 0.6142 | 833.9 ± 0.5
318.15 K, x2 = 0.6732 | 854.3 ± 0.5
318.15 K, x2 = 0.728 | 875.8 ± 0.5
318.15 K, x2 = 0.7735 | 895.6 ± 0.5
318.15 K, x2 = 0.8087 | 912.6 ± 0.5
318.15 K, x2 = 0.8503 | 934.4 ± 0.5
318.15 K, x2 = 0.8944 | 960.1 ± 0.5
318.15 K, x2 = 0.9252 | 980 ± 0.5
318.15 K, x2 = 0.9473 | 995.6 ± 0.5
318.15 K, x2 = 0.9768 | 1017.9 ± 0.5

[2]
Conditions | excess molar enthalpy [kcal/mol]
x2 = 0 | 0 ± 0.000478
x2 = 0.0948 | 0.19 ± 0.0043
x2 = 0.1964 | 0.341 ± 0.00741
x2 = 0.29 | 0.453 ± 0.00956
x2 = 0.3757 | 0.524 ± 0.011
x2 = 0.4516 | 0.561 ± 0.0117
x2 = 0.5089 | 0.572 ± 0.012
x2 = 0.5556 | 0.573 ± 0.012
x2 = 0.5944 | 0.568 ± 0.012
x2 = 0.6291 | 0.56 ± 0.0117
x2 = 0.6358 | 0.556 ± 0.0117
x2 = 0.6748 | 0.539 ± 0.0112
x2 = 0.7141 | 0.518 ± 0.0108
x2 = 0.7558 | 0.484 ± 0.0103
x2 = 0.7914 | 0.445 ± 0.00932
x2 = 0.8294 | 0.393 ± 0.00837
x2 = 0.8725 | 0.33 ± 0.00717
x2 = 0.9085 | 0.255 ± 0.0055
x2 = 0.9429 | 0.174 ± 0.00406
x2 = 0.9788 | 0.0741 ± 0.00191
